Test results reported in PMC9665079, “Structure-activity exploration of a small-molecule allosteric inhibitor of T790M/L858R double mutant EGFR” (Journal of Enzyme Inhibition and Medicinal Chemistry, 2022).

Tests used:
[1] = tested on: double mutant H1975 cell line; parameters: method as in PMID 29766737; settings: read-out: IC50 anti-proliferative activity; cited from earlier work
EGFR(T790M/L858R) = biological target: T1, EGFR(T790M/L858R) (Homo sapiens, UniProt P00533, L858R/T790M); assay: In vitro non-radioactive kinase assay, EGFR(T790M/L858R) Kinase Assay Kit (BPS Bioscience); format: biochemical; settings: for IC50: EGFR(T790M/L858R) Kinase Assay Kit, concentration inhibiting 50% enzyme activity, read-out: IC50 (μM) ± Std. Dev.; for Activity on mutant EGFR in kinase assay (in words): compared with compound 4, five independent experiments
T1 construct: purchased BPS Bioscience 40322
Method: In vitro kinase assays were performed using the EGFR(T790M/L858R) Kinase Assay Kit (BPS
Bioscience, Cat. #40322) in the presenc e of compounds or vehicle . Assays conditions were set
according to the manufacturer’s instructions. Dose -response curves were fitted by non -linear
regression of normalized enzyme activity vs log[inhibitor] data, using GraphPad Prism software. […]

[2] = tested on: T790M/L858R double mutant EGFR; parameters: method as in PMID 29766737; settings: type III allosteric inhibitor of T790M/L858R double mutant EGFR; cited from earlier work
wt EGFR H1299 cell line = tested on: wt EGFR H1299 cell line; parameters: method as in PMID 29766737; settings: read-out: IC50 anti-proliferative activity; cited from earlier work
[3] = tested on: mutant EGFR H1650 cell line; parameters: method as in PMID 29766737; settings: read-out: IC50 anti-proliferative activity; cited from earlier work
[4] = tested on: H1975 lung cancer cell line expressing the double mutant L858R/T790M EGFR; assay: Cell proliferation / viability by MTS assay in H1975 cells; format: cell-based; settings: 72 hours, micromolar concentrations
Method: Compounds 15 and 18 were then tested in cell proliferation assays on the H1975 lung cancer cell line expressing the double mutant L858R/T790M EGFR.
(§1) Figure 3. Activity of compounds 15 and 18 in H1975 cells. (A) Cell viability was measured by MTS assay. (B) EGFR phosphorylation was assessed by Western blot after 8-h incubation with the compounds (10 µM). Total EGFR and actin are shown for loading control. […]
(§2) 3-nitroaniline 1a (119 mg); 4-fluoro-3-(iminomethyl)phenyl acetate 2h (181 mg); 5-fluoro-2-methyl-1H-indole 3b (149 mg); purification: procedur b, […]
In vitro kinase assays were performed using the EGFR(T790M/L858R) Kinase Assay Kit (BPS Bioscience, Cat. #40322) in the presenc e of compounds or vehicle . Assays conditions were set according to the manufacturer’s instructions. […]
(§3) For cytotoxicity assays, compounds were added to cells in 96-well plates for 72 hours. Cell viability was measured by MTS assay using the CellTiter 96® AQueous One Solution Cell Proliferation Assay System (Promega, Madison, WI, USA) according to instructions. Inhibition of EGFR was assessed by Western blotting after incubating the cells with the compounds for 8 hours. […]
(§4) Chemiluminescence was detected using a ChemiDoc XRS+ System (Bio-Rad, Hercules, CA, USA) and Image Lab software (Bio-Rad). […]

[5] = tested on: phospho-EGFR (Tyr1068) in H1975 cells; assay: EGFR phosphorylation by Western blot in H1975 cells; format: cell-based; settings: Western blot after 8-h incubation, 10 µM
Method: as §1, §2
In vitro kinase assays were performed using the EGFR(T790M/L858R) Kinase Assay Kit (BPS Bioscience, Cat. #40322) in the presenc e of compounds or vehicle . Assays conditions were set according to the manufacturer’s instructions. Dose -response curves were fitted by non -linear regression of normalized enzyme activity vs log[inhibitor] data, using GraphPad Prism software.
as §3, §4

Compound | IC50 (EGFR(T790M/L858R)) [µM] | Activity on mutant EGFR in kinase assay (in words) (EGFR(T790M/L858R)) | other results
Cc1[nH]c2ccccc2c1C(Nc1cccc([N+](=O)[O-])c1)c1ccccn1 (stereo not shown) [Compound 4] | 154 ± 11 | – | IC50 [1]: 24 ± 2 µM; EC50 [2]: 6.2 ± 0.5 µM; IC50 (wt EGFR H1299 cell line): 14.5 ± 0.3 µM; IC50 [3]: 19 ± 2 µM
Cc1[nH]c2ccc(F)cc2c1C(Nc1cccc([N+](=O)[O-])c1)c1ccccn1 (stereo not shown) [Compound 7] | 123 ± 17 | – | –
O=[N+]([O-])c1cccc(NC(c2ccccn2)c2c[nH]c3ccccc23)c1 (stereo not shown) [Compound 8] | 95 ± 31 | – | –
Cc1[nH]c2ccccc2c1C(Nc1cccc([N+](=O)[O-])c1)c1ncccc1O (stereo not shown) [Compound 12] | 96 ± 30 | – | –
Cc1[nH]c2ccccc2c1C(Nc1cccc([N+](=O)[O-])c1)c1ccccc1 (stereo not shown) [Compound 13] | – | lack of activity | –
COc1ccc(F)cc1C(Nc1cccc([N+](=O)[O-])c1)c1c(C)[nH]c2ccccc12 (stereo not shown) [Compound 14] | – | lack of activity | –
Cc1[nH]c2ccccc2c1C(Nc1cccc([N+](=O)[O-])c1)c1ccccc1O (stereo not shown) [Compound 15] | 33 ± 4 | significantly improved activity with respect to 4 | Inhibition of cell proliferation (in words) [4]: inhibited cell proliferation; Inhibition of EGFR phosphorylation (in words) [5]: inhibited
Cc1[nH]c2ccccc2c1C(Nc1cccc([N+](=O)[O-])c1)c1cc(F)ccc1O (stereo not shown) [Compound 17] | 63 ± 12 | – | –
Cc1[nH]c2ccccc2c1C(Nc1cccc([N+](=O)[O-])c1)c1cc(O)ccc1F (stereo not shown) [Compound 18] | 27 ± 5 | significantly improved activity with respect to 4 | Inhibition of cell proliferation (in words) [4]: inhibited cell proliferation; Inhibition of EGFR phosphorylation (in words) [5]: inhibited
